Test results published in US6455506B1, “Lyxofuranosyl benzimidazoles as antiviral agents” (SmithKline Beecham Corporation, priority 1997, dated 2002).
Values joined by “and” are separate entries in the source; they are usually repeats but may differ in a detail not shown here. Identical values can stand only once. Like-named read-outs stand apart in the source and are kept apart here.

Experiments:
HSV-1 = HSV-1 ELISA in BSC-1 cells; type: cell-based, herpes simplex virus 1; conditions: Human alphaherpesvirus 1, quadruplicate wells, read-out: HSV-1 ELISA 50% Inhibitory Concentration (IC50)
Protocol: An ELISA was employed (see Prichard, M. N.; Shipman, C., Jr. A Three Dimensional Model to Analyze Drug-Drug Interactions. Antiviral Res. 1990, 14, 181-206) to detect HSV-1. Ninety-six-well cluster dishes were planted with 10,000 BSC-1 cells per well in 200 μL per well of MEM(E) plus 10% calf serum. After overnight incubation at 37° C., selected drug concentrations in quadruplicate and HSV-1 at a concentration of 100 p.f.u./well were added. Following a 3-day incubation at 37° C., medium was removed, plates were blocked, rinsed, and horse radish peroxidase conjugated rabbit anti-HSV-1 antibody was added. Following removal of the antibody containing solution, plates were rinsed, and then developed by adding 150 μL per well of a solution of tetramethylbenzidine as substrate. The reaction was stopped with H2SO4 and absorbance was read at 450 and 570 nm. Drug effects were calculated as a percentage of the reduction in absorbance in the presence of each drug concentration compared to absorbance obtained with virus in the absence of drug.
(§1) Dose-response relationships were constructed by linearly regressing the percent inhibition of parameters derived in the preceding sections against log drug concentrations. Fifty-percent inhibitory concentrations (IC50's) or IC90's were calculated from the regression lines. Samples containing positive controls (acyclovir for HSV-1, ganciclovir for HCMV, and 2-acetylpyridine thiosemicarbazone for cytotoxicity) were used in all assays.

HCMV [1] = assay: HCMV plaque reduction assay (Towne strain) in HFF cells; type: cell-based, Human cytomegalovirus
Protocol: (§2) Stock HCMV was prepared by infecting HFF cells at a multiplicity of infection (m.o.i.) of <0.01 plaque-forming units (p.f.u.) per cell as detailed previously (see Turk, S. R.; Shipman, C., Jr.; Nassiri, M. R.; Genzingler, G.; Krawczyk, S. H.; Townsend, L. B.; Drach, J. C. Pyrrolo[2,3-d]pyrimidine Nucleosides as Inhibitors of Human Cytomegalovirus, Antimicrob. Agents Chemother. 1987, 31, 544-550). High titer HSV-1 stocks were prepared by infecting KB cells (ATCC) at an m.o.i. of <0.1 also as detailed previously (see Turk, S. R.; Shipman, C., Jr.; Nassiri, M. R.; Genzingler, G.; Krawczyk, S. H.; Townsend, L. B.; Drach, J. C. Pyrrolo[2,3-d]pyrimidine Nucleosides as Inhibitors of Human Cytomegalovirus, Antimicrob. Agents Chemother. 1987, 31, 544-550). Virus titers were determined using monolayer cultures of HFF cells for HCMV and monolayer cultures of BSC-1 cells for HSV-1 as described earlier (see Prichard, M. N.; Turk, S. R.; Coleman, L. A.; Engelhardt, S. L.; Shipman, C., Jr.; Drach, J. C. A Microtiter Virus Yield Reduction Assay for the Evaluation of Antiviral Compounds Against Human Cytomegalovirus and Herpes Simplex Virus. J. Virol. Methods 1990, 28, 101-106). Briefly, HFF or BSC-1 cells were planted as described above in 96-well cluster dishes and incubated overnight at 37° C. The next day cultures were inoculated with HCMV or HSV-1 and serially diluted 1:3 across the remaining eleven columns of the 96-well plate. After virus adsorption the inoculum was replaced with fresh medium and cultures were incubated for seven days for HCMV, two or three days for HSV-1. Plaques were enumerated under 20-fold magnification in wells having the dilution which gave 5 to 20 plaques per well. Virus titers were calculated according to the following formula: Titer (p.f.u./mL)=number of plaques×5×3^n; where n represents the nth dilution of the virus used to infect the well in which plaques were enumerated.
(§3) HFF cells in 24-well cluster dishes were infected with approximately 100 p.f.u. of HCMV per cm^2 cell sheet using the procedures detailed above. Following virus adsorption, compounds dissolved in growth medium were added to duplicate wells in four to eight selected concentrations. After incubation at 37° C. for 7 to 10 days, cell sheets were fixed, stained with crystal violet and microscopic plaques enumerated as described above.
as §1

[2] = Inhibition of KB cell growth (crystal violet); type: cell-based; conditions: human
Protocol: (§4) Two different assays were used for routine cytotoxicity testing. (i) Cytotoxicity produced in stationary HFF cells was determined by microscopic inspection of cells not affected by the virus used in plaque assays (see Turk, S. R.; Shipman, C., Jr.; Nassiri, M. R.; Genzingler, G.; Krawczyk, S. H.; Townsend, L. B.; Drach, J. C. Pyrrolo[2,3-]pyrimidine Nucleosides as Inhibitors of Human Cytomegalovirus, Antimicrob. Agents Chemother. 1987, 31, 544-550). (ii) The effect of compounds during two population doublings of KB cells was determined by crystal violet staining and spectrophotometric quantitation of dye eluted from stained cells as described earlier (see Prichard, M. N.; Prichard, L. E., Baguley, W. A.; Nassiri, M. R.; Shipman, C., Jr. Three-Dimensional Analysis of the Synergistic Cytotoxicity of Ganciclovir and Zidovudine. Antiviral Res. 1991, 35, 1060-1065). Briefly, 96-well cluster dishes were planted with KB cells at 3000-5000 cells per well. After overnight incubation at 37° C., test compound was added in quadruplicate at six to eight concentrations. Plates were incubated at 37° C. for 48 hours in a CO2 incubator, rinsed, fixed with 95% ethanol, and stained with 0.1% crystal violet. Acidified ethanol was added and plates read at 570 nm in a spectrophotometer designed to read 96-well ELISA assay plates.
as §1

[3] = Visual cytotoxicity in stationary HFF cells; type: cell-based; conditions: human
Protocol: as §4, §1

HCMV [4] = assay: HCMV yield reduction assay (Towne strain) in HFF cells; type: cell-based, Human cytomegalovirus
Protocol: as §2
HFF cells were planted as described above in 96-well cluster dishes, incubated overnight, medium removed and the cultures were inoculated with HCMV at a m.o.i. of 0.5 to 1 p.f.u. per cell as reported elsewhere (see Prichard, M. N.; Turk, S. R.; Coleman, L. A.; Engelhardt, S. L.; Shipman, C., Jr.; Drach, J. C. A Microtiter Virus Yield Reduction Assay for the Evaluation of Antiviral Compounds Against Human Cytomegalovirus and Herpes Simplex Virus. J. Virol. Methods 1990, 28, 101-106). After virus adsorption, inoculum was replaced with 0.2 mL of fresh medium containing test compounds. The first row of 12 wells was left undisturbed and served as virus controls. Each well in the second row received an additional 0.1 mL of medium with test compound at three times the desired final concentration. The contents of the 12 wells were mixed by repeated pipetting and then serially diluted 1:3 along the remaining wells. In this manner, six compounds could be tested in duplicate on a single plate with concentrations from […]. Plates were incubated at 37° C. for seven days, subjected to one cycle of freezing and thawing; aliquots from each of the eight wells of a given column were transferred to the first column of a fresh 96-well monolayer culture of HFF cells. Contents were mixed and serially diluted 1:3 across the remaining eleven columns of the secondary plate. Each column of the original primary plate was diluted across a separate plate in this manner. Cultures were incubated, plaques were enumerated, and titers calculated as described above.
as §1

HCMV Strain AD169 = assay: HCMV plaque reduction assay, strain AD169; type: cell-based, Human cytomegalovirus; conditions: Human betaherpesvirus 5, Table 3, read-out: HCMV Strain AD169 plaque 50% Inhibitory Concentration (IC50)
Protocol: as §3, §1

[5] = Human betaherpesvirus 5, Table 2, HFF cells, duplicate, read-out: HCMV plaque 50% Inhibitory Concentration (IC50)
[6] = KB cells, KB cell growth, 48 hours, quadruplicate, read-out: Cytotoxicity growth (IC50)
[7] = HFF cells, scored at time of HCMV plaque enumeration, read-out: Cytotoxicity visual (IC50)
[8] = Human betaherpesvirus 5, Table 2, HFF cells, duplicate, read-out: HCMV yield 90% Inhibitory Concentration (IC90)
[9] = Human betaherpesvirus 5, HFF, Table 3, same data as Table 2, read-out: HCMV Strain Towne yield 90% Inhibitory Concentration (IC90)
[10] = Human betaherpesvirus 5, HFF, Table 3, same data as Table 2, read-out: HCMV Strain Towne plaque 50% Inhibitory Concentration (IC50)

IC50 (HSV-1) [µM] | IC50 (HCMV [1]; [5]) [µM] | IC90 (HCMV [4]; [8]) [µM] | IC90 (HCMV [4]; [9]) [µM] | IC50 (HCMV [1]; [10]) [µM] | IC50 (HCMV Strain AD169) [µM] | melting point | Compound | IC50 at 48 h [2, 6] [µM] | IC50 [3, 7] [µM] | IC50 at 48 h [2] [µM] | IC50 [3] [µM]
> 100 | > 100 |  |  |  |  |  | CSc1nc2cc(Cl)c(Cl)cc2n1[C@@H]1O[C@@H](CO)[C@@H](O)[C@H]1O [Compound 12a, 5,6-Dichloro-1-(α-L-lyxofuranosyl)-2-(methylthio)benzimidazole] | > 100 | > 100 |  | 
> 100 | > 100 | > 100 |  |  |  |  | OC[C@H]1O[C@H](n2c(=S)[nH]c3cc(Cl)c(Cl)cc32)[C@@H](O)[C@H]1O [Compound 9b, 5,6-Dichloro-1-(α-D-lyxofuranosyl)benzimidazol-2-thione] | > 100 | > 100 |  | 
> 100 | > 100 | 19 | 19 | > 100 | 11 |  | CC(C)Nc1nc2cc(Cl)c(Cl)cc2n1[C@@H]1O[C@@H](CO)[C@@H](O)[C@H]1O [Compound 7a, 5,6-Dichloro-2-isopropylamino-1-(α-L-lyxofuranosyl)benzimidazole] | > 100 | > 100 |  | 
> 100 | > 100 | > 100 |  |  |  |  | CNc1nc2cc(Cl)c(Cl)cc2n1[C@H]1O[C@H](CO)[C@H](O)[C@@H]1O [Compound 6b, 5,6-Dichloro-1-(α-D-lyxofuranosyl)-2-(methylamino)benzimidazole] | > 100 | > 100 |  | 
> 100 | 60 | 17 | 17 | 60 | 32 |  | CC(C)Nc1nc2cc(Cl)c(Cl)cc2n1[C@H]1O[C@H](CO)[C@H](O)[C@@H]1O [Compound 7b, 5,6-Dichloro-2-isopropylamino-1-(α-D-lyxofuranosyl)benzimidazole] | > 100 | > 100 |  | 
 | 39 ± 26 |  |  |  |  |  | O=C(O)P(=O)(O)O [foscarnet, reference compound] |  | > 100 |  | 
 |  |  |  |  |  | 183 to 185 °C and 184 to 186 °C | OC[C@@H]1O[C@@H](n2c(NC3CC3)nc3cc(Cl)c(Cl)cc32)[C@H](O)[C@@H]1O [Compound 8a, 2-Cyclopropylamino-5,6-dichloro-1-(α-L-lyxofuranosyl)benzimidazole] |  |  |  | 
> 100 | > 100 |  |  |  |  | 126 to 128 °C and 131 to 132 °C | CNc1nc2cc(Cl)c(Cl)cc2n1[C@@H]1O[C@@H](CO)[C@@H](O)[C@H]1O [Compound 6a, 5,6-Dichloro-1-(α-L-lyxofuranosyl)-2-(methylamino)benzimidazole] | > 100 | > 100 |  | 
> 100 | 18 | 3.4 | 3.4 | 18 | 2.6 |  | OC[C@@H]1O[C@@H](n2c(Cl)nc3cc(Cl)c(Cl)cc32)[C@H](O)[C@@H]1O [Compound 4a, 1-(α-L-Lyxofuranosyl)-2,5,6-trichlorobenzimidazole] |  |  | > 100 | 190
> 100 | > 100 | > 100 |  |  |  |  | CSc1nc2cc(Cl)c(Cl)cc2n1[C@H]1O[C@H](CO)[C@H](O)[C@@H]1O [Compound 12b, 5,6-Dichloro-1(α-D-lyxofuranosyl)-2-(methylthio)benzimidazole] | > 100 | > 100 |  | 
50 | 6 | 65 | 65 | 6 | 4.2 |  | OC[C@H]1O[C@H](n2c(Br)nc3cc(Cl)c(Cl)cc32)[C@@H](O)[C@H]1O [Compound 5b, 2-Bromo-5,6-dichloro-1-(α-D-lyxofuranosyl)benzimidazole] | > 100 | > 100 |  | 
> 100 | > 100 | > 100 |  |  |  | 234 to 236 °C | OC[C@@H]1O[C@@H](n2c(=S)[nH]c3cc(Cl)c(Cl)cc32)[C@H](O)[C@@H]1O [Compound 9a, 5,6-Dichloro-1-(α-L-lyxofuranosyl)benzimidazol-2-thione] | > 100 | > 100 |  | 
90 | 18 | > 100 | > 100 | 18 | 9 |  | OC[C@H]1O[C@H](n2c(Cl)nc3cc(Cl)c(Cl)cc32)[C@@H](O)[C@H]1O [Compound 4b, 1-(α-D-Lyxofuranosyl)-2,5,6-trichlorobenzimidazole] |  |  | > 100 | > 100
